# Measurements published in patent publication US7138361B2, “Herbicidal heterocycles” (E. I. du Pont de Nemours and Company, priority 2000, dated 2006).
# Assays:
# Format in all cases: in vivo
# [1] = tested on: lambsquarters (Chenopodium album); assay: Test B preemergence; conditions: scale 0 to 100, 0 no effect, 100 complete control
# Method in brief: (§1)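 Seeds were planted and sprayed preemergence with test chemical in a non-phytotoxic solvent mixture containing surfactant; postemergence plants (2 to 18 cm, 1- to 4-leaf stage) received the same formulation. Greenhouse hold 13 to 15 days, then visual rating versus untreated controls on a 0–100 scale (0 no effect, 100 complete control).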
# [2] = tested on: pigweed (Amaranthus retroflexus); assay: Test B preemergence; conditions: scale 0 to 100, 0 no effect, 100 complete control
# Method in brief: as §1
# [3] = tested on: cocklebur (Xanthium strumarium); assay: Test B preemergence; conditions: scale 0 to 100, 0 no effect, 100 complete control
# Method in brief: as §1
# corn (Zea mays) [4] = assay: Test B preemergence; conditions: scale 0 to 100, 0 no effect, 100 complete control
# Method in brief: as §1
# [5] = tested on: barnyardgrass (Echinochloa crus-galli); assay: Test B preemergence; conditions: scale 0 to 100, 0 no effect, 100 complete control
# Method in brief: as §1
# rice (Oryza saliva) = assay: Test B preemergence; conditions: scale 0 to 100, 0 no effect, 100 complete control
# Method in brief: as §1
# [6] = tested on: morning glory (Ipomoea hederacea); assay: Test B preemergence; conditions: scale 0 to 100, 0 no effect, 100 complete control
# Method in brief: as §1
# [7] = tested on: crabgrass (Digitaria sanguinalis); assay: Test B preemergence; conditions: scale 0 to 100, 0 no effect, 100 complete control
# Method in brief: as §1
# [8] = tested on: Surinam grass (Brachiaria decumbens); assay: Test B preemergence; conditions: scale 0 to 100, 0 no effect, 100 complete control
# Method in brief: as §1
# [9] = tested on: velvetleaf (Abutilon theophrasti); assay: Test B preemergence; conditions: scale 0 to 100, 0 no effect, 100 complete control
# Method in brief: as §1
# [10] = tested on: giant foxtail (Setaria faberii); assay: Test B preemergence; conditions: scale 0 to 100, 0 no effect, 100 complete control
# Method in brief: as §1
# [11] = tested on: lambsquarters (Chenopodium album); assay: Test B postemergence; conditions: 13 to 15 days
# Method in brief: as §1
# [12] = tested on: wheat (Triticum aestivum); assay: Test B postemergence; conditions: 13 to 15 days
# Method in brief: as §1
# [13] = tested on: cocklebur (Xanthium strumarium); assay: Test B postemergence; conditions: 13 to 15 days
# Method in brief: as §1
# [14] = tested on: blackgrass (Alopecurus myosuroides); assay: Test B postemergence; conditions: 13 to 15 days
# Method in brief: as §1
# corn (Zea mays) [15] = assay: Test B postemergence; conditions: 13 to 15 days
# Method in brief: as §1
# [16] = tested on: barnyardgrass (Echinochloa crus-galli); assay: Test B postemergence; conditions: 13 to 15 days
# Method in brief: as §1
# [17] = tested on: morning glory (Ipomoea hederacea); assay: Test B postemergence; conditions: 13 to 15 days
# Method in brief: as §1
# wild oat (Avena fatua) = assay: Test B postemergence; conditions: 13 to 15 days
# Method in brief: as §1
# [18] = tested on: crabgrass (Digitaria sanguinalis); assay: Test B postemergence; conditions: 13 to 15 days
# Method in brief: as §1
# [19] = tested on: Surinam grass (Brachiaria decumbens); assay: Test B postemergence; conditions: 13 to 15 days
# Method in brief: as §1
# [20] = tested on: velvetleaf (Abutilon theophrasti); assay: Test B postemergence; conditions: 13 to 15 days
# Method in brief: as §1
# [21] = tested on: giant foxtail (Setaria faberii); assay: Test B postemergence; conditions: 13 to 15 days
# Method in brief: as §1
# [22] = Rate 125 g/ha, scale 0 (no effect) to 100 (complete control)
# [23] = Rate 500 g/ha, scale 0 to 100, 0 is no effect, 100 is complete control
compound,measurement,setting,value
Cc1ccn(C2CCN(c3cccc(C(F)(F)F)c3)C2=O)n1 (centres unmarked) [Compound 16],"Plant response rating, Lambsquarters","[1]; Preemergence, Rate 500 g/ha",0
same,"Plant response rating, Lambsquarters","[1]; preemergence, Rate 125 g/ha",0
same,"Plant response rating, Pigweed","[2]; Preemergence, Rate 500 g/ha",0
same,"Plant response rating, Pigweed","[2]; preemergence, Rate 125 g/ha",0
same,"Plant response rating, Cocklebur","[3]; Preemergence, Rate 500 g/ha",0
same,"Plant response rating, Cocklebur","[3]; preemergence, Rate 125 g/ha",0
same,"Plant response rating, Corn","corn (Zea mays) [4]; Preemergence, Rate 500 g/ha",0
same,"Plant response rating, Corn","corn (Zea mays) [4]; preemergence, Rate 125 g/ha",0
same,"Plant response rating, Barnyardgrass","[5]; Preemergence, Rate 500 g/ha",0
same,"Plant response rating, Barnyardgrass","[5]; preemergence, Rate 125 g/ha",0
same,"Plant response rating, Rice","rice (Oryza saliva); Preemergence, Rate 500 g/ha",0
same,"Plant response rating, Rice","rice (Oryza saliva); preemergence, Rate 125 g/ha",0
same,"Plant response rating, Morningglory","[6]; Preemergence, Rate 500 g/ha",0
same,"Plant response rating, Morningglory","[6]; preemergence, Rate 125 g/ha",0
same,"Plant response rating, Crabgrass","[7]; Preemergence, Rate 500 g/ha",0
same,"Plant response rating, Crabgrass","[7]; preemergence, Rate 125 g/ha",0
same,"Plant response rating, Surinam grass","[8]; Preemergence, Rate 500 g/ha",0
same,"Plant response rating, Surinam grass","[8]; preemergence, Rate 125 g/ha",0
same,"Plant response rating, Velvetleaf","[9]; Preemergence, Rate 500 g/ha",20
same,"Plant response rating, Velvetleaf","[9]; preemergence, Rate 125 g/ha",0
same,"Plant response rating, Foxtail, Giant","[10]; Preemergence, Rate 500 g/ha",0
same,"Plant response rating, Foxtail, Giant","[10]; preemergence, Rate 125 g/ha",0
same,"Plant response rating, Lambsquarters",[11]; [22],0
same,"Plant response rating, Lambsquarters",[11]; [23],0
same,"Plant response rating, Wheat",[12]; [22],0
same,"Plant response rating, Wheat",[12]; [23],0
same,"Plant response rating, Cocklebur",[13]; [22],0
same,"Plant response rating, Cocklebur",[13]; [23],0
same,"Plant response rating, Blackgrass",[14]; [22],0
same,"Plant response rating, Blackgrass",[14]; [23],0
same,"Plant response rating, Corn",corn (Zea mays) [15]; [22],0
same,"Plant response rating, Corn",corn (Zea mays) [15]; [23],0
same,"Plant response rating, Barnyardgrass",[16]; [22],0
same,"Plant response rating, Barnyardgrass",[16]; [23],0
same,"Plant response rating, Morningglory",[17]; [22],0
same,"Plant response rating, Morningglory",[17]; [23],0
same,"Plant response rating, Wild Oat",wild oat (Avena fatua); [22],0
same,"Plant response rating, Wild Oat",wild oat (Avena fatua); [23],50
same,"Plant response rating, Crabgrass",[18]; [22],0
same,"Plant response rating, Crabgrass",[18]; [23],60
same,"Plant response rating, Surinam grass",[19]; [22],0
same,"Plant response rating, Surinam grass",[19]; [23],0
same,"Plant response rating, Velvetleaf",[20]; [22],0
same,"Plant response rating, Velvetleaf",[20]; [23],0
same,"Plant response rating, Foxtail, Giant",[21]; [22],0
same,"Plant response rating, Foxtail, Giant",[21]; [23],30
CC(C)(C)c1nn(C2CCN(c3cccc(C(F)(F)F)c3)C2=O)cc1Cl (centres unmarked) [Compound 14],"Plant response rating, Lambsquarters","[1]; Preemergence, Rate 500 g/ha",0
same,"Plant response rating, Lambsquarters","[1]; preemergence, Rate 125 g/ha",0
same,"Plant response rating, Pigweed","[2]; Preemergence, Rate 500 g/ha",0
same,"Plant response rating, Pigweed","[2]; preemergence, Rate 125 g/ha",0
same,"Plant response rating, Cocklebur","[3]; Preemergence, Rate 500 g/ha",0
same,"Plant response rating, Cocklebur","[3]; preemergence, Rate 125 g/ha",0
same,"Plant response rating, Corn","corn (Zea mays) [4]; Preemergence, Rate 500 g/ha",0
same,"Plant response rating, Corn","corn (Zea mays) [4]; preemergence, Rate 125 g/ha",0
same,"Plant response rating, Barnyardgrass","[5]; Preemergence, Rate 500 g/ha",0
same,"Plant response rating, Barnyardgrass","[5]; preemergence, Rate 125 g/ha",0
same,"Plant response rating, Rice","rice (Oryza saliva); Preemergence, Rate 500 g/ha",0
same,"Plant response rating, Rice","rice (Oryza saliva); preemergence, Rate 125 g/ha",0
same,"Plant response rating, Morningglory","[6]; Preemergence, Rate 500 g/ha",0
same,"Plant response rating, Morningglory","[6]; preemergence, Rate 125 g/ha",0
same,"Plant response rating, Crabgrass","[7]; Preemergence, Rate 500 g/ha",0
same,"Plant response rating, Crabgrass","[7]; preemergence, Rate 125 g/ha",0
same,"Plant response rating, Surinam grass","[8]; Preemergence, Rate 500 g/ha",0
same,"Plant response rating, Surinam grass","[8]; preemergence, Rate 125 g/ha",0
same,"Plant response rating, Velvetleaf","[9]; Preemergence, Rate 500 g/ha",0
same,"Plant response rating, Velvetleaf","[9]; preemergence, Rate 125 g/ha",0
same,"Plant response rating, Foxtail, Giant","[10]; Preemergence, Rate 500 g/ha",0
same,"Plant response rating, Foxtail, Giant","[10]; preemergence, Rate 125 g/ha",0
same,"Plant response rating, Lambsquarters",[11]; [22],0
same,"Plant response rating, Lambsquarters",[11]; [23],0
same,"Plant response rating, Wheat",[12]; [22],0
same,"Plant response rating, Wheat",[12]; [23],0
same,"Plant response rating, Cocklebur",[13]; [22],0
same,"Plant response rating, Cocklebur",[13]; [23],0
same,"Plant response rating, Blackgrass",[14]; [22],0
same,"Plant response rating, Blackgrass",[14]; [23],0
same,"Plant response rating, Corn",corn (Zea mays) [15]; [22],0
same,"Plant response rating, Corn",corn (Zea mays) [15]; [23],0
same,"Plant response rating, Barnyardgrass",[16]; [22],0
same,"Plant response rating, Barnyardgrass",[16]; [23],0
same,"Plant response rating, Morningglory",[17]; [22],30
same,"Plant response rating, Morningglory",[17]; [23],80
same,"Plant response rating, Wild Oat",wild oat (Avena fatua); [22],0
same,"Plant response rating, Wild Oat",wild oat (Avena fatua); [23],0
same,"Plant response rating, Crabgrass",[18]; [22],50
same,"Plant response rating, Crabgrass",[18]; [23],70
same,"Plant response rating, Surinam grass",[19]; [22],0
same,"Plant response rating, Surinam grass",[19]; [23],0
same,"Plant response rating, Velvetleaf",[20]; [22],0
same,"Plant response rating, Velvetleaf",[20]; [23],0
same,"Plant response rating, Foxtail, Giant",[21]; [22],20
same,"Plant response rating, Foxtail, Giant",[21]; [23],30
